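Step 1: Grow cells in 96-well plates. Step 2: Expose to compound for 48 hours at 5 concentrations. Step 3: Interpolate endpoints linearly; if unreached, use highest concentration. The concentration for full growth arrest is given as TGI.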
Experiments:
Test in all cases: NCI-60 cell line screen, 48 h
786-0 renal = system: 786-0 renal
A498 renal = system: A498 renal
A549 NSCLC = system: A549 NSCLC
ACHN renal = system: ACHN renal
BT-549 breast = system: BT-549 breast
COLO 205 colon = system: COLO 205 colon
DU-145 prostate = system: DU-145 prostate
EKVX NSCLC = system: EKVX NSCLC
HCC-2998 colon = system: HCC-2998 colon
HCT-116 colon = system: HCT-116 colon
HCT-15 colon = system: HCT-15 colon
HOP-62 NSCLC = system: HOP-62 NSCLC
HS 578T breast = system: HS 578T breast
HT29 colon = system: HT29 colon
IGROV1 ovarian = system: IGROV1 ovarian
K-562 leukemia = system: K-562 leukemia
KM12 colon = system: KM12 colon
LOX IMVI melanoma = system: LOX IMVI melanoma
M14 melanoma = system: M14 melanoma
MALME-3M melanoma = system: MALME-3M melanoma
MCF7 breast = system: MCF7 breast
MDA-MB-231 breast = system: MDA-MB-231 breast
MDA-MB-435 = system: MDA-MB-435
MDA-N = system: MDA-N
MOLT-4 leukemia = system: MOLT-4 leukemia
NCI-H23 lung = system: NCI-H23 lung
NCI-H460 lung = system: NCI-H460 lung
NCI/ADR-RES ovarian = system: NCI/ADR-RES ovarian
OVCAR-3 ovarian = system: OVCAR-3 ovarian
OVCAR-4 ovarian = system: OVCAR-4 ovarian
OVCAR-5 ovarian = system: OVCAR-5 ovarian
OVCAR-8 ovarian = system: OVCAR-8 ovarian
PC-3 prostate = system: PC-3 prostate
RPMI-8226 leukemia = system: RPMI-8226 leukemia
SF-268 CNS = system: SF-268 CNS
SF-295 CNS = system: SF-295 CNS
SF-539 CNS = system: SF-539 CNS
SK-MEL-2 melanoma = system: SK-MEL-2 melanoma
SK-MEL-28 melanoma = system: SK-MEL-28 melanoma
SK-MEL-5 melanoma = system: SK-MEL-5 melanoma
SK-OV-3 ovarian = system: SK-OV-3 ovarian
SN12C renal = system: SN12C renal
SNB-19 CNS = system: SNB-19 CNS
SNB-75 CNS = system: SNB-75 CNS
SR leukemia = system: SR leukemia
SW-620 colon = system: SW-620 colon
T-47D breast = system: T-47D breast
TK-10 renal = system: TK-10 renal
U251 CNS = system: U251 CNS
UACC-257 melanoma = system: UACC-257 melanoma
UACC-62 melanoma = system: UACC-62 melanoma
UO-31 renal = system: UO-31 renal
CAKI-1 renal = system: CAKI-1 renal
CCRF-CEM leukemia = system: CCRF-CEM leukemia
NCI-H226 lung = system: NCI-H226 lung
RXF 393 renal = system: RXF 393 renal

Measured: TGI

c1cc2cc(c1)CN1CCNCCN(CCNCC1)Cc1cccc(c1)CN1CCNCCN(CCNCC1)C2
not listed: CAKI-1 renal | CCRF-CEM leukemia | NCI-H226 lung | RXF 393 renal
> 100 µM: all other assays above

COc1ccccc1-c1nc2ccccc2c(=O)[nH]1
not listed: HT29 colon | K-562 leukemia | LOX IMVI melanoma | SF-539 CNS | SK-MEL-28 melanoma | TK-10 renal
> 100 µM: all other assays above

Reference: PubChem BioAssay (NCI)
